Data: PMC6694829, “Identification of Immunodominant HIV-1 Epitopes Presented by HLA-C*12:02, a Protective Allele, Using an Immunopeptidomics Approach” (Journal of Virology, 2019)

Tests used:
[1] = system: CD8+ T cells; experiment: intracellular cytokine staining (ICS) assay with peptide-expanded bulk T cells; type: cell-based, human; details: peptide-expanded bulk T cells from responder KI-1407 (Env-RL9) or KI-1394 (Vif-DY9); IFN-γ ICS; words
Procedure: PBMCs from HIV-1-infected individuals were expanded by culture with each HIV-1 peptide for 2 weeks. .221-C1202 cells prepulsed with each HIV-1 peptide or .221-C1202 cells infected with HIV-1 NL4-3 were added to a 96-well plate together with bulk-cultured T cells, and the cells were incubated for 4 h at 37°C with brefeldin A (10 μg/ml). The cells were then stained with peridinin chlorophyll protein (PerCP)-labeled anti-CD3 mAb (BioLegend), phycoerythrin (PE)-labeled anti-CD4 mAb (BioLegend), and allophycocyanin (APC)-labeled anti-CD8 mAb (Dako) and subsequently fixed with 4% paraformaldehyde and incubated in permeabilization buffer (0.1% saponin–10% FBS–PBS). Thereafter, the cells were stained with FITC-labeled anti-IFN-γ mAb (BioLegend). Staining data were acquired on a FACSCanto II instrument (BD Biosciences) and analyzed using FlowJo 10.5.3 software.

[2] = system: PBMCs from HIV-1-infected HLA-C*12:02+ individuals; experiment: ex vivo IFN-γ ELISpot assay; type: cell-based, human; details: for number of individuals with T cell response to the peptide: of 20 chronically HIV-1-infected HLA-C*12:02+ Japanese individuals, peptide 1 μM, positive >100 spots/10^6 PBMCs; for average magnitude of the T cell responses in individuals recognizing the epitope: ex vivo ELISpot, 20 HLA-C*12:02+ individuals screened, responders only
Procedure: Peripheral blood mononuclear cells (PBMCs) were separated from whole blood and stored at −80°C. ELISpot assays were performed as previously described ([52]). […] The plates were then incubated for 16 h at 37°C and subsequently washed with PBS before the addition of biotinylated anti-IFN-γ mAb (Mabtech) at 1 μg/ml. After the plates had been incubated at room temperature for 90 min, they were washed with PBS and then incubated with streptavidin-conjugated alkaline phosphatase (Mabtech) for 60 min at room temperature. Following washes with PBS, individual cytokine-producing cells were visualized as dark spots after a 20-min reaction with 5-bromo-4-chloro-3-indolyl phosphate and nitroblue tetrazolium in the presence of an alkaline phosphatase-conjugated substrate (Bio-Rad). The spots were counted with an Eliphoto-Counter (Minerva Teck). The number of spots was calculated per 10^6 PBMCs. One hundred spots per 10^6 PBMCs were defined as a positive response, as described previously ([52]).

[3] = biological target: HLA-C*12:02 heavy chain and β2-microglobulin (Homo sapiens, UniProt P10321, A176E/A330V/C350S/D114A/D33Y/L171W/L180W/L218V/M285V/M309V/M331V/P208H/Q277E/Q291P/S123Y/S297R/S48A/T329A/T363A/V319A/V328M); experiment: peptide/HLA refolding assay analyzed by FPLC; type: binding; details: for refolded peptide/HLA-C*12:02/β2m complex FPLC peak Height: heavy chain 20 μM, β2m 2 μM, peptide 85 μM, 48 h at 4°C, Superdex 75, Fig. 2d; for refolding with HLA-C*12:02 heavy chain and β2m: low-temperature refolding, FPLC, result in words
Procedure: Refolding of peptides with the HLA heavy chain and β2m was performed as previously described ([74]). Briefly, HLA-C*12:02 heavy chain and β2m were overexpressed in Escherichia coli as inclusion bodies and solubilized with 8 M urea. Before refolding, only β2m was refolded and purified with Superdex 75 pg 26/600 (GE Healthcare) chromatography, and the solubilized HLA heavy chain was treated with 6 M guanidine hydrochloride at 4°C overnight. The dissolved HLA heavy chain, purified monomer β2m, and peptide (final concentrations of 20 μM, 2 μM, and 85 μM, respectively) were diluted in 10 ml of refolding buffer (100 mM Tris-HCl [pH 8.0], 400 mM L-arginine, 2 mM EDTA-Na, 5 mM reduced L-glutathione, and 0.5 mM oxidized L-glutathione). After 48 h of slow stirring at 4°C, the peptide–HLA-C complex was then concentrated and purified by Superdex 75 pg 26/600 (GE Healthcare) chromatography.

[4] = biological target: HLA-C*12:02 (Homo sapiens, UniProt P10321, A176E/A330V/C350S/D114A/D33Y/L171W/L180W/L218V/M285V/M309V/M331V/P208H/Q277E/Q291P/S123Y/S297R/S48A/T329A/T363A/V319A/V328M); experiment: HLA class I stabilization assay using RMA-S-C1202 cells; type: cell-based; details: for binding to HLA-C*12:02 at higher peptide concentration / binding to HLA-C*12:02 (stabilization of surface HLA expression, expression index): RMA-S-C1202 cells, result in words; for binding to HLA-C*12:02 at higher peptide concentration: peptide 100 to 300 μM; for binding to HLA-C*12:02 (stabilization of surface HLA expression, expression index): peptide 0.1 to 100 μM, pulsed 26°C 1 h then 37°C 3 h, DT-9 staining, flow cytometry; for affinities of binding to HLA-C*12:02, Nef-MY9 compared with Nef-MY10: data not shown, words
Procedure: The affinity of peptide binding to HLA-C*12:02 was examined using RMA-S-C1202 cells as previously described ([67]). Briefly, RMA-S-C1202 cells were cultured at 26°C for 16 h and then pulsed with peptides at 26°C for 1 h and subsequently incubated at 37°C for 3 h. Staining of cell surface HLA-C molecules was performed with DT-9, an HLA-C-specific monoclonal antibody (mAb) (a gift from Mary Carrington, NIH), and fluorescein isothiocyanate (FITC)-conjugated sheep anti-mouse IgG (Jackson ImmunoResearch). Staining data were acquired on a FACSCanto II instrument (BD Biosciences) and analyzed using FlowJo 10.5.3 software. Relative HLA expression was calculated as the ratio of the mean fluorescence intensity (MFI) of peptide-pulsed RMA-S-C1202 cells to that of control (non-peptide-pulsed) cells kept at 26°C.

[5] = system: CD8+ T cells; details: comparison Nef-MY9 vs Nef-MY10; previous study; cited from earlier work
Text: In addition to Nef-VY9, which was previously reported as immunodominant HLA-C*12:02-restricted epitope MY9 ([52], [53]), the C-terminally extended Nef-VF10 peptide (VARELHPEYF) was also among the HIV-1 peptides identified here. […] (Nef-MY9) much more efficiently than […]Y (Nef-MY10) ([52]), despite the fact that the affinities of ...

Sequence | HLA restriction of T cell response: recognition of peptide-prepulsed 721.221 cells expressing single HLA alleles [1] | number of individuals with T cell response to the peptide [2] | refolded peptide/HLA-C*12:02/β2m complex FPLC peak Height [3] | refolding with HLA-C*12:02 heavy chain and β2m [3] | binding to HLA-C*12:02 at higher peptide concentration [4] | average magnitude of the T cell responses in individuals recognizing the epitope [2] | binding to HLA-C*12:02 (stabilization of surface HLA expression, expression index) [4] | recognition by PBMCs expanded in vitro with a peptide cocktail including MARELHPEYY [5] | affinities of binding to HLA-C*12:02, Nef-MY9 compared with Nef-MY10 [4]
DAKLVITTY [Vif-DY9, HIV-1 Vif 61–69 peptide …] | higher-magnitude response to Vif-DY9-pulsed HLA-B*35:01-expressing cells than to Vif-DY9-pulsed HLA-C*12:02-expressing cells | 1 | – | – | – | – | – | – | –
FLGKIWPSH [Gag-FH9, HIV-1 Gag 433–441 peptide …] | – | – | 2.27 mAU | shown to refold with HLA-C*12:02 heavy chain and β2m molecules | did not exhibit detectable binding | – | – | – | –
ILKEPVHGVYY [Pol-IY11, HIV-1 Pol 464–474 peptide […]] | – | 5/20 | 4.88 mAU | shown to refold with HLA-C*12:02 heavy chain and β2m molecules | – | 130 SFC/10^6 PBMCs | exhibited affinity for HLA-C*12:02 molecules | – | –
KGALDLSHF [Nef-KF9, HIV-1 Nef 82–90 peptide; synthesized as …] | – | – | 4.48 mAU | shown to refold with HLA-C*12:02 heavy chain and β2m molecules | did not exhibit detectable binding | – | – | – | –
LGKIWPSH [Gag-LH8, HIV-1 Gag 434–441 peptide LGKIWPSH] | – | – | 6.41 mAU | shown to refold with HLA-C*12:02 heavy chain and β2m molecules | did not exhibit detectable binding | – | – | – | –
MARELHPEY [Nef-MY9, reference compound] | – | 5/20 | – | complex of HLA-C*12:02, peptide, and β2m was generated | – | 167 SFC/10^6 PBMCs | exhibited affinity for HLA-C*12:02 molecules | much more efficiently than […] (Nef-MY10) | similar
MARELHPEYY [Nef-MY10, […], consensus version of Nef-VF10, reference compound] | – | – | – | – | – | – | – | – | similar
MSQVTNSATIM [Gag-MM11, HIV-1 Gag 367–377 peptide eluted from HLA-C*12:02; tested as clade B consensus […]] | – | – | 3.51 mAU | shown to refold with HLA-C*12:02 heavy chain and β2m molecules | did not exhibit detectable binding | – | – | – | –
